Experiment [1] has as its system HCT116 xenograft tumor (p110α H1047R). Kind of experiment: Peptide treatment of HCT116 xenograft tumors in athymic nude mice. Conditions: intratumoral 250 μg daily for 14 days. In kind it is in vivo.
Experiment [2] deals with DLD1 xenograft tumor (p110α E545K). Kind of experiment: Peptide treatment of DLD1 xenograft tumors in athymic nude mice. In kind it is in vivo. Conditions: intratumoral 250 μg daily for 14 days, versus water control. The procedure:
FIGS. 5(A-D) illustrate: (A) An athymic nude mouse with a xenograft Tumor growth of cancer cells harboring the p110α E545K Mutation (A and B) and treated with Stapled p110α E545K Mutant Peptide. Five million DLD1 cells were injected subcutaneously and bilaterally into athymic nude mice. Once the xenograft tumors reach 100-150 mm^3, the left side tumors were injected with the stapled WT peptide and the right side tumors were injected with the stapled mutant peptide daily for 14 days. Ten tumors of similar size in five other athymic nude mice were injected with an equal amount of water as controls. Tumor sizes were measured every 2 days. Representative pictures of mice injected with the peptides are shown in (A) and quantitative measurements are shown in (B). Arrows indicate tumors treated with the stapled WT peptide and the red arrows indicate tumors treated with the stapled mutant peptide. The p value was calculated using ANOVA analysis. […] All quantitative measurements are plotted as mean±SEM.
Animal experiments were approved by the Case Western Reserve University Animal Care and Use Committee. […] Tumor volume was measured with electronic calipers, and volumes were calculated as length 3 width^2/2.
Five-week-old male athymic nude mice were injected with 5 million cells subcutaneously and bilaterally. […] The tumor sizes were measured every 2 days.

Bridges are numbered along the chain shown (N, C = ends). Where no end group is shown, it is not given here. [ ]: non-standard residue; d: D form. S5 = C=CCCC[C@](C)(N)C(=O)O

As to “H2N-SEITEQEKD^549-FLW-S^553-HRHYC-COOH (SEITEQEK[S5]FLW[S5]HRHYC; staple 9-13; not fully specified (N-terminus, C-terminus); printed as H2N-SEITEQEKD549-FLW-S553-HRHYC-COOH; listed as Homo sapiens) [stapled WT peptide, stapled wild-type p110α counterpart of the stapled mutant peptide, used as control, reference compound]”, in experiment [1], the “xenograft tumor growth of HCT116 CRC cells” value is given as “neither the stapled WT nor the stapled mutant peptide inhibited”. In experiment [2], the “DLD1 xenograft tumor growth” value was “did not inhibit”.

For “H2N-SEITKQEK-D^549-FLW-S^553-HRHYC-COOH [stapled mutant peptide]”, in experiment [1], the “xenograft tumor growth of HCT116 CRC cells” value is given as “neither the stapled WT nor the stapled mutant peptide inhibited”. The “DLD1 xenograft tumor growth” value in experiment [2] is listed as “significantly slowed”.

For the origin of these results see patent US20140005119A1, “COMPOSITIONS AND METHODS FOR INHIBITING THE ACTIVITY OF P110a MUTANT PROTEINS” (Case Western Reserve University, priority 2012, published 2014).
